Tests used:
[1] = molecular target: Prostaglandin G/H synthase 1 (Homo sapiens) (UniProt P23219); experiment: COX1(h) Eurofins-Cerep enzyme and uptake assay; conditions: Compound concentration 10.0 uM
[2] = molecular target: cGMP-inhibited 3',5'-cyclic phosphodiesterase 3A (Homo sapiens) (UniProt Q14432); experiment: PDE3A (h) Eurofins-Cerep enzyme and uptake assay; conditions: Compound concentration 10.0 uM
[3] = molecular target: Histamine H1 receptor (Homo sapiens) (UniProt P35367); experiment: H1 (h) Eurofins-Cerep binding assay; set-up: ligand concentration 1 nM; conditions: filed as antagonist, Compound concentration 10.0 uM
Histamine H1 receptor (Homo sapiens), sequence (P35367 whole entry): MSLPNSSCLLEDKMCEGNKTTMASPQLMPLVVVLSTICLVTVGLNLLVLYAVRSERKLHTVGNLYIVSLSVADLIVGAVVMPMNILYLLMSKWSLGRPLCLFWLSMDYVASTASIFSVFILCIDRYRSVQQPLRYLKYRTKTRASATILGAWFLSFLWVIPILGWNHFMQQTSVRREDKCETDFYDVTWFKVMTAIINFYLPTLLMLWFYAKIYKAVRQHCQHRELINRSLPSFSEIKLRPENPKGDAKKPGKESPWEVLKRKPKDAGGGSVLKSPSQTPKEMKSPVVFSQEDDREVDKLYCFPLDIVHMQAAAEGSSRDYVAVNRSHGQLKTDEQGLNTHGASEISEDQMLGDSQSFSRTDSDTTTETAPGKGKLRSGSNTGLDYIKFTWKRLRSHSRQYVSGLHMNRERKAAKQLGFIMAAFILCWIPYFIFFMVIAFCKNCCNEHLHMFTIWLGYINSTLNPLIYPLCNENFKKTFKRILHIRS

[4] = molecular target: Vasopressin V1a receptor (Homo sapiens) (UniProt P37288); experiment: V1 a (h) Eurofins-Cerep binding assay; set-up: ligand concentration 0.3 nM; conditions: filed as agonist, Compound concentration 10.0 uM
[5] = molecular target: voltage-gated Na+ channel (site 2) (Rattus norvegicus, UniProt F1LQQ7+O08562+O88420+O88457+P04774+P04775+P08104+P15389+P15390+Q62968); experiment: Na+ channel (site 2) Eurofins-Cerep binding assay; assay type: protein assay; set-up: incubation time 60 min, incubation temperature 37°C, ligand concentration 10 nM; conditions: rat cerebral cortex, probe [3H]batrachotoxin (10 nM), compound concentration 10 uM, read-out: % Inhibition of Control Specific Binding (Mean n=2)
[6] = molecular target: GABA-A receptor; anion channel (Rattus norvegicus) (UniProt O09028+P15431+P18506+P18508+P19969+P20236+P23574+P23576+P28471+P28473+P30191+P62813+P63079+P63138+Q91ZM7+Q9ES14); experiment: Cl- channel (GABA-gated) Eurofins-Cerep binding assay; assay type: protein-complex assay; set-up: ligand concentration 3 nM; conditions: filed as antagonist, Compound concentration 10.0 uM
[7] = molecular target: Sodium-dependent dopamine transporter (Homo sapiens) (UniProt Q01959); experiment: dopamine transporter (h) Eurofins-Cerep binding assay; set-up: ligand concentration 4 nM; conditions: filed as antagonist, Compound concentration 10.0 uM
[8] = molecular target: Serine/threonine-protein kinase BRSK1 (Homo sapiens) (UniProt Q8TDC3); conditions: Compound concentration 1000.0 nM
[9] = molecular target: Tyrosine-protein kinase BTK (Homo sapiens) (UniProt Q06187); conditions: Compound concentration 1000.0 nM
[10] = molecular target: Cyclin-dependent kinase 11B (Homo sapiens) (UniProt P21127); conditions: Compound concentration 1000.0 nM
[11] = molecular target: Cyclin-dependent kinase 3 (Homo sapiens) (UniProt Q00526); conditions: Compound concentration 1000.0 nM
[12] = molecular target: Macrophage colony-stimulating factor 1 receptor (Homo sapiens) (UniProt P07333); conditions: Compound concentration 1000.0 nM
[13] = molecular target: Casein kinase I isoform alpha (Homo sapiens) (UniProt P48729); conditions: Compound concentration 1000.0 nM
Casein kinase I isoform alpha (Homo sapiens), sequence (P48729 2-337 limits assumed): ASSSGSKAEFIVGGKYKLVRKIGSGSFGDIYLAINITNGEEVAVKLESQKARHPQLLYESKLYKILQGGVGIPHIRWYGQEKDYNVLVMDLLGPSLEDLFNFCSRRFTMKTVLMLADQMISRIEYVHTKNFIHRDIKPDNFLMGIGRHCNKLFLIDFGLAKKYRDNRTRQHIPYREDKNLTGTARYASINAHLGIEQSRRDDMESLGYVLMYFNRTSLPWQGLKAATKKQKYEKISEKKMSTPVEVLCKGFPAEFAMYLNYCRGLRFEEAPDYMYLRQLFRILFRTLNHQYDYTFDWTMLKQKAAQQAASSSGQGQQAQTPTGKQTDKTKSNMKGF

[14] = molecular target: Serine/threonine-protein kinase 17A (Homo sapiens) (UniProt Q9UEE5); conditions: Compound concentration 1000.0 nM
[15] = molecular target: Serine/threonine-protein kinase 17B (Homo sapiens) (UniProt O94768); conditions: Compound concentration 1000.0 nM
[16] = molecular target: Dual specificity tyrosine-phosphorylation-regulated kinase 1B (Homo sapiens) (UniProt Q9Y463); conditions: Compound concentration 1000.0 nM
Dual specificity tyrosine-phosphorylation-regulated kinase 1B (Homo sapiens), sequence (Q9Y463 whole entry, looked up): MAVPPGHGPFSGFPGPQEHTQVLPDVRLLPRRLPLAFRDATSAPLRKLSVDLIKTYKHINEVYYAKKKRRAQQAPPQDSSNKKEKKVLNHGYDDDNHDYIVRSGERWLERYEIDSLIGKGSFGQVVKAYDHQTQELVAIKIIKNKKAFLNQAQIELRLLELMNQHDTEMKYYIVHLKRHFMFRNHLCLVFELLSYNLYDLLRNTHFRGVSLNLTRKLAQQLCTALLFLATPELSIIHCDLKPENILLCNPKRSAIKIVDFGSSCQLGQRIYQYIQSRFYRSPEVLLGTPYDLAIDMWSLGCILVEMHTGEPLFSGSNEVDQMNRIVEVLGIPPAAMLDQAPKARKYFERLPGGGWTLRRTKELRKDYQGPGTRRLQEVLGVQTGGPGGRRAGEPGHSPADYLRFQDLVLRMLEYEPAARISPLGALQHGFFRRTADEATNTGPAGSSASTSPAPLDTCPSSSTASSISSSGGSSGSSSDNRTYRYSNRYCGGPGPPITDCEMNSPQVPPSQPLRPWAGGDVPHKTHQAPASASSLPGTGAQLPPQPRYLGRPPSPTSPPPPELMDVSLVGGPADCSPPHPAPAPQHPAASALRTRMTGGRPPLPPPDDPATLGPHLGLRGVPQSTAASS

[17] = molecular target: Ephrin type-A receptor 5 (Homo sapiens) (UniProt P54756); conditions: Compound concentration 1000.0 nM
[18] = molecular target: Receptor tyrosine-protein kinase erbB-4 (Homo sapiens) (UniProt Q15303); conditions: Compound concentration 1000.0 nM
[19] = molecular target: Fibroblast growth factor receptor 2 (Homo sapiens) (UniProt P21802); conditions: Compound concentration 1000.0 nM
Fibroblast growth factor receptor 2 (Homo sapiens), sequence (P21802 22-821 limits assumed): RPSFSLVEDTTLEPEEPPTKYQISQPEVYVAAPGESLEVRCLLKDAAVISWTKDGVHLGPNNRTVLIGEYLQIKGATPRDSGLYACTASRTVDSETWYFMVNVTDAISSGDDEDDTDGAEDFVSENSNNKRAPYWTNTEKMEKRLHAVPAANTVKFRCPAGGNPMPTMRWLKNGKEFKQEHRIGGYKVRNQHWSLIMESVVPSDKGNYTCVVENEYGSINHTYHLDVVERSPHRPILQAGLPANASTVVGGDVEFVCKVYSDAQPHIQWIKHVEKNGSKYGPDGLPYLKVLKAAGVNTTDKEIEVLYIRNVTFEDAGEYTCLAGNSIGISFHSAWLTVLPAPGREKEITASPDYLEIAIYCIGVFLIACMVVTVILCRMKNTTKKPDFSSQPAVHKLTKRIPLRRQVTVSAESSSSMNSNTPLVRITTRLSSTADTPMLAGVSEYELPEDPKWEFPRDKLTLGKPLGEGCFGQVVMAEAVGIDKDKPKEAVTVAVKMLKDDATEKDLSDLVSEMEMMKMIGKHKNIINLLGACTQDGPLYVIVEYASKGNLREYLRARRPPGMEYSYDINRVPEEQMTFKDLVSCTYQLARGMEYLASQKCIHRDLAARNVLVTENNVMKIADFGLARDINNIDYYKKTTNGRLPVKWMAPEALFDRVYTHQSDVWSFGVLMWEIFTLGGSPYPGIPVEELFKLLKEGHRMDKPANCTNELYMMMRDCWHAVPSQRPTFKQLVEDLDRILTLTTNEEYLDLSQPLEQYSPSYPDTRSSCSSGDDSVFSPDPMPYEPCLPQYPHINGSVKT

[20] = molecular target: Tyrosine-protein kinase JAK1 (Homo sapiens) (UniProt P23458); conditions: Compound concentration 1000.0 nM
[21] = molecular target: Maternal embryonic leucine zipper kinase (Homo sapiens) (UniProt Q14680); conditions: Compound concentration 1000.0 nM
[22] = molecular target: Myosin light chain kinase (Homo sapiens) (UniProt Q32MK0); conditions: Compound concentration 1000.0 nM
[23] = molecular target: Serine/threonine-protein kinase mTOR (Homo sapiens) (UniProt P42345); conditions: Compound concentration 1000.0 nM
[24] = molecular target: Serine/threonine-protein kinase Nek10 (Homo sapiens) (UniProt Q6ZWH5); conditions: Compound concentration 1000.0 nM
[25] = molecular target: Serine/threonine-protein kinase Nek11 (Homo sapiens) (UniProt Q8NG66); conditions: Compound concentration 1000.0 nM
Serine/threonine-protein kinase Nek11 (Homo sapiens), sequence (Q8NG66 whole entry): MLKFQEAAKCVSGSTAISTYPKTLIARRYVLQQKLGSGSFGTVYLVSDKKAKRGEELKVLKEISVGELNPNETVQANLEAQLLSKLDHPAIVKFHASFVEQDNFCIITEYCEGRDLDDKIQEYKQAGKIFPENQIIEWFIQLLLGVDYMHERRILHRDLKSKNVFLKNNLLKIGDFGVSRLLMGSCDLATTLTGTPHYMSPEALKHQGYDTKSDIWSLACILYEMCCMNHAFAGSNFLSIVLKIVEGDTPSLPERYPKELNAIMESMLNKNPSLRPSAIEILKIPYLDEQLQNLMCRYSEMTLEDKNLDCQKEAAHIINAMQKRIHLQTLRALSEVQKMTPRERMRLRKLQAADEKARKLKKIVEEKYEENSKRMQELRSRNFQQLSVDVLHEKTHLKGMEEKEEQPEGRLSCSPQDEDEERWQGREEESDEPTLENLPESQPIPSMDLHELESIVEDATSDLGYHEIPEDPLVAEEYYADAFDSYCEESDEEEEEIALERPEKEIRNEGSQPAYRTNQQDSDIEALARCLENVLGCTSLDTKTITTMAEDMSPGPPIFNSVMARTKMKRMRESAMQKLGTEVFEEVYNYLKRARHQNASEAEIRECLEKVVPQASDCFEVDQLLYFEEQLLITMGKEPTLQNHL

[26] = molecular target: Serine/threonine-protein kinase Nek2 (Homo sapiens) (UniProt P51955); conditions: Compound concentration 1000.0 nM
Serine/threonine-protein kinase Nek2 (Homo sapiens), sequence (P51955 whole entry): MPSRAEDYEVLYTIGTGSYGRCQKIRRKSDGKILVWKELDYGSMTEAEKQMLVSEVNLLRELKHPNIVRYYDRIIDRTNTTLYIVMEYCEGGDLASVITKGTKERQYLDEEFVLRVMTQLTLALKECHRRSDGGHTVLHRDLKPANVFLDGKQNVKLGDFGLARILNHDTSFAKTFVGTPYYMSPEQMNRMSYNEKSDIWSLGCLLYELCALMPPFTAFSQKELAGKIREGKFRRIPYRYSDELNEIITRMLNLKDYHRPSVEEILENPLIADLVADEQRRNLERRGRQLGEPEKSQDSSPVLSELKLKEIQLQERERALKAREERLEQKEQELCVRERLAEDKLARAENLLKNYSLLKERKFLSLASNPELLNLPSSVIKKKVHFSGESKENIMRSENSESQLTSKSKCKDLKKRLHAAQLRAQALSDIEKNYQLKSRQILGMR

[27] = molecular target: Mitogen-activated protein kinase kinase kinase 14 (Homo sapiens) (UniProt Q99558); conditions: Compound concentration 1000.0 nM
[28] = molecular target: cAMP-dependent protein kinase catalytic subunit beta (Homo sapiens) (UniProt P22694); conditions: Compound concentration 1000.0 nM
[29] = molecular target: Serine/threonine-protein kinase PLK2 (Homo sapiens) (UniProt Q9NYY3); conditions: Compound concentration 1000.0 nM
[30] = molecular target: Serine/threonine-protein kinase PLK3 (Homo sapiens) (UniProt Q9H4B4); conditions: Compound concentration 1000.0 nM
[31] = molecular target: Serine/threonine-protein kinase D2 (Homo sapiens) (UniProt Q9BZL6); conditions: Compound concentration 1000.0 nM
[32] = molecular target: cAMP-dependent protein kinase catalytic subunit PRKX (Homo sapiens) (UniProt P51817); conditions: Compound concentration 1000.0 nM
[33] = molecular target: Ribosomal protein S6 kinase alpha-1 (Homo sapiens) (UniProt Q15418); conditions: Compound concentration 1000.0 nM
[34] = molecular target: Ribosomal protein S6 kinase alpha-2 (Homo sapiens) (UniProt Q15349); conditions: Compound concentration 1000.0 nM
[35] = molecular target: SRSF protein kinase 1 (Homo sapiens) (UniProt Q96SB4); conditions: Compound concentration 1000.0 nM
[36] = molecular target: Dual specificity testis-specific protein kinase 1 (Homo sapiens) (UniProt Q15569); conditions: Compound concentration 1000.0 nM
[37] = molecular target: Angiopoietin-1 receptor (Homo sapiens) (UniProt Q02763); conditions: Compound concentration 1000.0 nM
[38] = molecular target: Serine/threonine-protein kinase 32C (Homo sapiens) (UniProt Q86UX6); conditions: Compound concentration 1000.0 nM
[39] = molecular target: D(2) dopamine receptor (Homo sapiens) (UniProt P14416); conditions: Compound concentration 10.0 uM
D(2) dopamine receptor (Homo sapiens), sequence (P14416 whole entry): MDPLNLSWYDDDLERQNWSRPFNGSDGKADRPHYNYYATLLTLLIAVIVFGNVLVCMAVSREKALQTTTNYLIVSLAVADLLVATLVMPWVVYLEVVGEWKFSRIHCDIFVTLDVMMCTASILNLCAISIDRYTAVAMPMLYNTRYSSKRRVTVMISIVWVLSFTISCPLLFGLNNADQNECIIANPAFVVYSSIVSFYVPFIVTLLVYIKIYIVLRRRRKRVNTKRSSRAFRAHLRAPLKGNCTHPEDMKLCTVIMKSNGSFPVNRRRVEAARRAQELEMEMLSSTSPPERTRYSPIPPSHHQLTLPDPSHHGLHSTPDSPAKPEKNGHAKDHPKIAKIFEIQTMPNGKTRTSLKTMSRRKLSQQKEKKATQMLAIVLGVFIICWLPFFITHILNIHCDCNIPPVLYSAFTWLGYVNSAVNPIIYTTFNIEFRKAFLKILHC

[40] = molecular target: Kappa-type opioid receptor (Homo sapiens) (UniProt P41145); conditions: Compound concentration 10.0 uM
[41] = molecular target: Histamine H1 receptor (Homo sapiens) (UniProt P35367); conditions: Compound concentration 10.0 uM
[42] = molecular target: Histamine H2 receptor (Homo sapiens) (UniProt P25021); conditions: Compound concentration 10.0 uM

cGMP-inhibited 3',5'-cyclic phosphodiesterase 3A (Homo sapiens), sequence (Q14432 whole entry): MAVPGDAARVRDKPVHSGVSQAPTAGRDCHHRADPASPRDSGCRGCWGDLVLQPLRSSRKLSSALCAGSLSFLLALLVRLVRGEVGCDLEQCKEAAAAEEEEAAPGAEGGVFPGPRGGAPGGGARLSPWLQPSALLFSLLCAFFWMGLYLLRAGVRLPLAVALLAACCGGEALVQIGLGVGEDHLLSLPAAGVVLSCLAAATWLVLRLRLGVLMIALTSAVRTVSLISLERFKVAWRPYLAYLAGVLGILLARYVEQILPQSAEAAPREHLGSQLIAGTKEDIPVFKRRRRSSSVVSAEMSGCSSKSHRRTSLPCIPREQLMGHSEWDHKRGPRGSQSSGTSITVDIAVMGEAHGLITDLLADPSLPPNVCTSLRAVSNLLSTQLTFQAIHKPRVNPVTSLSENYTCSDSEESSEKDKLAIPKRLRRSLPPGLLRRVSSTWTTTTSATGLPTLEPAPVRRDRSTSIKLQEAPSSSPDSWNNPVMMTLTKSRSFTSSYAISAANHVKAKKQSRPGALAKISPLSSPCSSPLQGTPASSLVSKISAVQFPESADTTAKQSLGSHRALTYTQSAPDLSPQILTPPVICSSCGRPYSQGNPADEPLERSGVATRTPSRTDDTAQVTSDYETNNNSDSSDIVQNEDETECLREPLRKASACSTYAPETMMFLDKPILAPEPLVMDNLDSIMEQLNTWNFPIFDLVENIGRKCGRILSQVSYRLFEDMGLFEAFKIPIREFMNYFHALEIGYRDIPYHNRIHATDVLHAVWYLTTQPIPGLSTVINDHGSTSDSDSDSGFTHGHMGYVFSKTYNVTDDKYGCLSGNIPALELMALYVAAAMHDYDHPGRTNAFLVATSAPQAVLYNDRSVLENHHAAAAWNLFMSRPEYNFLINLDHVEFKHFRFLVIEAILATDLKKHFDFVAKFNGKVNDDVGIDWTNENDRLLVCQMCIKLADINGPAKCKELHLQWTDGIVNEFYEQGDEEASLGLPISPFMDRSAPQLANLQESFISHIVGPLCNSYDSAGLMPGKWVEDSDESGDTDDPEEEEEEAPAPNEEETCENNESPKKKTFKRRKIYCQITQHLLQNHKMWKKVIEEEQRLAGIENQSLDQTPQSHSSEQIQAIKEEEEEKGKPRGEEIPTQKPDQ

**Q.** Which results are given for COc1ccc2c(c1)O[C@H](c1ccc(OC)c(OC)c1)C[C@@H]2NC(=O)C1(c2ccc3c(c2)OC(F)(F)O3)CC1 [A-1596584]?
**A.** % Inhibition of Control Values (Mean n=2) [1]: -6.7%; % Inhibition of Control Values (Mean n=2) [2]: -2.1%; % Inhibition of Control Specific Binding (Mean n=2) [3]: 4.5%; % Inhibition of Control Specific Binding (Mean n=2) [4]: 5.9%; inhibition at 60 min, 10 µM [5]: 47.3%; % Inhibition of Control Specific Binding (Mean n=2) [6]: 82.4%; % Inhibition of Control Specific Binding (Mean n=2) [7]: 25.8%; residual activity [8]: 100%; residual activity [9]: 92%; residual activity [10]: 100%; residual activity [11]: 100%; residual activity [12]: 100%; residual activity [13]: 82%; residual activity [14]: 100%; residual activity [15]: 100%; residual activity [16]: 91%; residual activity [17]: 100%; residual activity [18]: 94%; residual activity [19]: 92%; residual activity [20]: 100%; residual activity [21]: 78%; residual activity [22]: 95%; residual activity [23]: 100%; residual activity [24]: 100%; residual activity [25]: 88%; residual activity [26]: 100%; residual activity [27]: 100%; residual activity [28]: 99%; residual activity [29]: 100%; residual activity [30]: 100%; residual activity [31]: 100%; residual activity [32]: 100%; residual activity [33]: 100%; residual activity [34]: 95%; residual activity [35]: 100%; residual activity [36]: 98%; residual activity [37]: 70%; residual activity [38]: 84%; inhibition [39]: -7.27%; inhibition [40]: 27.4%; inhibition [41]: 49.9%; inhibition [42]: -0.89%

**Q.** What does the source list for COc1ccc2c(c1)O[C@@H](c1ccc(OC)c(OC)c1)C[C@H]2NC(=O)C1(c2ccc3c(c2)OC(F)(F)O3)CC1 [A-1596586]?
**A.** % Inhibition of Control Values (Mean n=2) [1]: -7.9%; % Inhibition of Control Values (Mean n=2) [2]: 1.2%; % Inhibition of Control Specific Binding (Mean n=2) [3]: 6.7%; % Inhibition of Control Specific Binding (Mean n=2) [4]: 4.7%; inhibition at 60 min, 10 µM [5]: 35%; % Inhibition of Control Specific Binding (Mean n=2) [6]: 57.7%; % Inhibition of Control Specific Binding (Mean n=2) [7]: 6.1%; residual activity [8]: 99%; residual activity [9]: 81%; residual activity [10]: 100%; residual activity [11]: 100%; residual activity [12]: 82%; residual activity [13]: 78%; residual activity [14]: 100%; residual activity [15]: 100%; residual activity [16]: 100%; residual activity [17]: 100%; residual activity [18]: 90%; residual activity [19]: 93%; residual activity [20]: 100%; residual activity [21]: 65%; residual activity [22]: 95%; residual activity [23]: 100%; residual activity [24]: 86%; residual activity [25]: 83%; residual activity [26]: 97%; residual activity [27]: 87%; residual activity [28]: 95%; residual activity [29]: 81%; residual activity [30]: 92%; residual activity [31]: 100%; residual activity [32]: 83%; residual activity [33]: 85%; residual activity [34]: 95%; residual activity [35]: 95%; residual activity [36]: 96%; residual activity [37]: 92%; residual activity [38]: 100%; inhibition [39]: 2.62%; inhibition [40]: 34.1%; inhibition [41]: 22.3%; inhibition [42]: -6.08%

Source: ChEMBL document CHEMBL4507262, “Data for DCP probe A-1596586” (2021)
